Measured values published in ChEMBL document CHEMBL1201862, “PubChem BioAssay data set” (2004).
Activity calls are given as the source filed them.

Experiments:
[1] = HeLa 4N DNA content increase, dose response, cell-based, IC50 (AID 1117351); type: functional
[2] = ZM109 Env clade C HIV-1 fusion inhibitors, dose response, HeLa effector, CEM target cells, luciferase, cherry-pick (AID 652058); type: functional, cell-based
[3] = off-target signal loss in HeLa-CEM21 co-culture – HeLa F-luc CTL cells, cherry-picked, counter-screen for HIV-1 Env fusion inhibitor project, dose response (AID 652040); type: functional, cell-based;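 further: potency for signal decrease marking cytotoxic or nonspecific inhibition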
[4] = inhibitors of HIV Env-driven cell fusion, dose response, cherry-pick (AID 652057); type: functional, cell-based
[5] = inhibitors of clade B AD8 Env fusion, dose response, cell-based, cherry-pick (AID 652062); type: functional;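 further: luciferase signal from cell-cell fusion driven by HIV-1 clade B AD8 Env; potency is for inhibitors of fusion seen as a drop in luminescence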
cells [6] = type: functional, cell-based
[7] = molecular target: T1, Nuclear receptor subfamily 0 group B member 1 (Homo sapiens, UniProt P51843); type: functional, cell-based;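 further: HEK293T cells transfected with SF-1 and DAX-1 plus StAR promoter luciferase reporter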
T1 sequence (P51843 whole entry): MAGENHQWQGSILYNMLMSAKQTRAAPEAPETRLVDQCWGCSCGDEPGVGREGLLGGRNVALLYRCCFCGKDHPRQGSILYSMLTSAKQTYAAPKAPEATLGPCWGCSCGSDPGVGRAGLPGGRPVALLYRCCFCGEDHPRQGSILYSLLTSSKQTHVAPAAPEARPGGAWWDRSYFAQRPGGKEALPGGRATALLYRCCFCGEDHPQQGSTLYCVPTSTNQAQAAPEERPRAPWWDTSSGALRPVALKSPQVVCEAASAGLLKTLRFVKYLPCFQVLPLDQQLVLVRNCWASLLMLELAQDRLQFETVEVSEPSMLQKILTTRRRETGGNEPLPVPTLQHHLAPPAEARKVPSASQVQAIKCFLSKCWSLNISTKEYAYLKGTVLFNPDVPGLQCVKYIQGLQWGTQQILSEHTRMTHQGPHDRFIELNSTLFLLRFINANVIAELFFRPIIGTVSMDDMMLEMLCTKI

Beta-galactosidase = Beta-galactosidase (Escherichia coli, UniProt Q8VNN2); assay: Dose response counterscreen for EBI2 assay utilizing the enzyme, b-galactosidase.; type: functional
[8] = test system: Streptococcus sp. 'group A'; assay: growth inhibition of control SK(-) GAS strain, dose response, counter-screen for streptokinase expression inhibitor project, luminescence, kanamycin, BacTiterGlo, confirmation (AID 1900); type: functional, organism-based
Streptococcus = assay: Group A Streptococcus viability loss, dose response, counter-screen for streptokinase expression inhibitor project, luminescence, BacTiterGlo (AID 1915); type: functional, organism-based;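 further: potency for reduction of bacterial viability or growth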
[9] = molecular target: T2, Heat shock factor protein 1 (Mus musculus, UniProt P38532); assay: inhibition of MG132-induced HSE-luciferase signal, confirmation, cell-based, NIH3T3, luminescence, dose retest (AID 2382); type: functional;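 further: NIH3T3 fibroblasts with HSF1-driven luciferase reporter stressed by proteasome inhibitor MG132; luminescence from HSF1-driven luciferase expression after 8 hours of MG132 stress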
T2 sequence (P38532 whole entry): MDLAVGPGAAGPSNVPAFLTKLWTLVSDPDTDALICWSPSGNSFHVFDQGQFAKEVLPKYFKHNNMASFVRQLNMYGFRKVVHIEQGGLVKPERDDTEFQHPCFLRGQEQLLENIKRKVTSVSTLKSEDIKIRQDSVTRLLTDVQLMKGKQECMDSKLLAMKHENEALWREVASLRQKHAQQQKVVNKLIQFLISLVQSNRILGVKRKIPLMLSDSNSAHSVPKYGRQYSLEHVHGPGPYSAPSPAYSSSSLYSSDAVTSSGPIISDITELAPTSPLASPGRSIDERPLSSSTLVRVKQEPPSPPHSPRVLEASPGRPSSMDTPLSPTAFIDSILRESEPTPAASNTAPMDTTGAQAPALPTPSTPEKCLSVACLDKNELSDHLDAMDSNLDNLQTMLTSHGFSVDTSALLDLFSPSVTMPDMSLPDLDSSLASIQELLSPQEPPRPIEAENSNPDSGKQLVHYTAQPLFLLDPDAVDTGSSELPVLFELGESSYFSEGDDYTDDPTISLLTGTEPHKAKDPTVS

[10] = human group III sPLA2 inhibitors, dose response, biochemical, QFRET, IC50 (AID 743457);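 further: green fluorescence rise as the enzyme cleaves BODIPY PC-A2 in liposomes; potency for inhibition of the enzyme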
cells [11] = type: functional, cell-based; remark: listed apart in the source
[12] = molecular target: T3, Trace amine-associated receptor 1 (Homo sapiens, UniProt Q96RJ0); assay: Counterscreen for agonists of the human trace amine associated receptor 1 (hTAAR1): Fluorescence-based cell-based high throughput dose response assay to identify hTAAR1 agonist that also desensitize TAAR1 receptor response.; type: functional
T3 sequence (Q96RJ0 whole entry): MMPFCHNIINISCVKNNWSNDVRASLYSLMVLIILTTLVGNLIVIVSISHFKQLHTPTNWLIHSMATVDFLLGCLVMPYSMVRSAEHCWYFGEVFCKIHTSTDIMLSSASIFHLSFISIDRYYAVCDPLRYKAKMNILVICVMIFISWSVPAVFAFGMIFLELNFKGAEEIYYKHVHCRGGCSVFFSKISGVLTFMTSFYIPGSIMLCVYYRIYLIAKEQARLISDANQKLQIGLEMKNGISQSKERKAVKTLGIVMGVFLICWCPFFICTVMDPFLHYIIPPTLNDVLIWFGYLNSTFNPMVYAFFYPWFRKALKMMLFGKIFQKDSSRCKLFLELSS

cells [13] = type: functional, cell-based; remark: listed apart in the source
[14] = molecular target: T3, Trace amine-associated receptor 1; assay: Fluorescence-based cell-based high throughput dose response assay to identify agonists of the human trace amine associated receptor 1 (TAAR1).; type: functional
[15] = molecular target: T4, COUP transcription factor 2 (Homo sapiens, UniProt P24468); assay: Luminescence-based cell-based high throughput dose response assay to identify inhibitors of COUP-TFII (NR2F2).; type: functional;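 further: HEK293 cells transiently cotransfected with COUP-TFII expression vector and reporter; luciferase reporter luminescence driven by COUP-TFII from the pX2-168 reporter plasmid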
T4 sequence (P24468 whole entry): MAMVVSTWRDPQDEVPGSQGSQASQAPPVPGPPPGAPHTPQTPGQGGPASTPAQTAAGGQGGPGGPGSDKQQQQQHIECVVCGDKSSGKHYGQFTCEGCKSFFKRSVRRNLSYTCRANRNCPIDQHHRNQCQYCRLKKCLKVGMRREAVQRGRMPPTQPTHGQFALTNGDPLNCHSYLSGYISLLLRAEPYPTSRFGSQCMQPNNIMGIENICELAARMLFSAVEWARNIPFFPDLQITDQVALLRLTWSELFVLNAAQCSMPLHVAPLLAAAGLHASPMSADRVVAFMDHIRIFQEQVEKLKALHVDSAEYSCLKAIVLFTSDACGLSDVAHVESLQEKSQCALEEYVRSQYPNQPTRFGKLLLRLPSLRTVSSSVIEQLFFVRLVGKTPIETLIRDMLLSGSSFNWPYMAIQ

[16] = cytotoxicity in HEK-293T cells, dose response, cytotoxicity control for TCR NF-kB inhibitor project, luminescence, T-cell screen hits (AID 489026); type: functional, cell-based;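 further: cells exposed to compound about 14 hours before the viability readout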
[17] = molecular target: Protein-tyrosine kinase 2-beta (Homo sapiens, UniProt Q14289);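 further: potency of inhibitors of PYK2 kinase phosphorylation of poly-GT substrate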
Estrogen receptor beta = Estrogen receptor beta (Homo sapiens, UniProt Q92731);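 further: recombinant ER-beta bound to coactivator SRC1 peptide in presence of estradiol agonist; inhibitors block coactivator peptide binding and lower the FRET signal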
Major prion protein = Major prion protein (Homo sapiens, UniProt P04156); type: functional, cell-based
cells [18] = assay: cells
[19] = Luminescence Cell-Based Dose Response HTS to Identify Inhibitors of 5'UTR Stem-Loop Driven Prion Protein mRNA Translation in H4 Neuroglioblastoma Cells. [Related pubchem assays: 1827 (Project Summary), 1813 (Primary HTS)]; type: functional
[20] = inhibitors of SNCA 5'UTR-driven reporter translation, confirmation, H4 neuroglioma cells, luminescence (AID 1988); type: functional, cell-based
[21] = inhibitors of firefly luciferase expression or activity, dose response, H4 neuroglioma cells, luminescence (AID 1990); type: functional, cell-based

## CC[C@@]1(O)C(=O)OCc2c1cc1n(c2=O)Cc2c-1nc1ccccc1c2/C=N/OC(C)(C)C
[1]
  IC50: > 10 µM (inactive)

## CC[C@@]12C(=O)N(c3cccc(Br)c3)C(=O)N1[C@H](c1ccc(OC)cc1)[C@@H]1C(=O)N(C(C)(C)C)C(=O)[C@@H]12
[2]
  AC50: 0.581 µM (active)
[3]
  AC50: 0.509 µM (active)
[4]
  AC50: 0.326 µM (active)
[5]
  AC50: 0.627 µM (active)

## COc1ccc([C@@H]2[C@@H]3C(=O)N(C(C)(C)C)C(=O)[C@@H]3[C@]3(CC(C)C)C(=O)N(c4ccccc4)C(=O)N23)cc1
[2]
  AC50: 1.13 µM (active)
[3]
  AC50: 0.732 µM (active)
[4]
  AC50: 0.737 µM (active)
[5]
  AC50: 1.88 µM (active)

## Cc1cc(C)n2nc(C(=O)Nc3ccc4c(c3)OCCO4)nc2n1
Cells [6]
  IC50: > 67.5 µM (inactive)
[7]
  IC50: > 67.5 µM (inactive)

## Cc1ccsc1C1Nc2ccc3ncccc3c2C2=C1C(=O)CC(C)(C)C2 (stereo not drawn)
Beta-galactosidase
  IC50: > 80 µM (inactive)

## COc1ccc(C(=O)NC(=S)NNC(=O)c2ccco2)cc1
[8]
  EC50: 6.65 µM (active)
Streptococcus
  EC50: 17.3 µM (active)
[9]
  EC50: > 195 µM (not active)
[10]
  IC50: > 122 µM (inactive)

## O=C(CCN1CCCC1Cc1ccccc1)c1ccc2c(c1)OCCO2 (stereo not drawn)
Cells [11]
  IC50: > 29.9 µM (inactive)
[12]
  IC50: > 9.97 µM (active)
Cells [13]
  EC50: > 29.9 µM (inactive)
[14]
  EC50: 0.3 µM (active)

## Cc1cc(-n2c(C)cc(C(=O)CSc3ncnc4ccccc34)c2C)no1
[15]
  IC50: 6.08 µM (active)
[16]
  IC50: > 80 µM (inactive)

## COc1ccc(-c2cc3ccccc3oc2=O)cc1NC(=O)c1ccc(Br)o1
[17]
  IC50: 1.57 µM (active)

## CCOC(=O)c1cccc(NC(=O)c2cccs2)c1
Estrogen receptor beta
  IC50: > 50 µM (not active)

## COc1cc(C(=O)Nc2scc(-c3ccc(C)cc3)c2C(=O)O)cc(OC)c1OC
Major prion protein
  IC50: 4.4 µM (active)
Cells [18]
  IC50: > 138 µM (inactive)

## CN(C)CCN(C(=O)c1ccc2c(c1)CCCC2)c1nc2cc3c(cc2s1)OCCO3
Cells [6]
  IC50: > 67.5 µM (inactive)
[7]
  IC50: > 67.5 µM (inactive)

## O=C1CC2(CCN(C(=O)COc3ccc(Cl)cc3)CC2)Oc2ccccc21
Beta-galactosidase
  IC50: > 80 µM (inactive)

## Cc1nn(C)c(C)c1CN(C)C(=O)c1cnn2c1NC(c1ccccc1)CC2C(F)(F)F (stereo not drawn)
[19]
  EC50: 17.9 µM (active)
Estrogen receptor beta
  IC50: > 50 µM (not active)
[20]
  EC50: 20 µM (active)
[21]
  EC50: > 120 µM (not active)
